For 32 molecules, IC50 results are on record in patent US11981661B2, “Heterocyclic compounds” (Hoffmann-La Roche Inc., priority 2020, dated 2024).

This assay addresses T1, MAGL (Homo sapiens, UniProt Q99685).
T1 sequence (Q99685 1-303): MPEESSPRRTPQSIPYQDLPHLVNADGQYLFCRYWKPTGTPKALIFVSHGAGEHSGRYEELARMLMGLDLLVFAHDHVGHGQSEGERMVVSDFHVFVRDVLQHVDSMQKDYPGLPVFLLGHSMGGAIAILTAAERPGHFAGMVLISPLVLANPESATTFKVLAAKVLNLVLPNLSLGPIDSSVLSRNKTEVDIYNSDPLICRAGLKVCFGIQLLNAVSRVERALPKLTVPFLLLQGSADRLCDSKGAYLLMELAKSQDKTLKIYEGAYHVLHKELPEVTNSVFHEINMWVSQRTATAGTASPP
Nature of the assay: 2-AG assay (MAGL inhibitory activity, hydrolysis of 2-arachidonoylglycerol followed by mass spectrometry). Format: biochemical. The conditions noted are these: 50 pM MAGL, 8 μM 2-arachidonoylglycerol, 15 min preincubation, 30 min incubation at RT, concentration range 12.5 μM to 0.8 pM. In a few lines:
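Activity derived from the arachidonic acid/d8-arachidonic acid MS intensity ratio after acetonitrile quench. Reaction: 8 μM 2-AG substrate with 50 pM MAGL, 30 min at RT, following 15 min RT compound preincubation; buffer 50 mM TRIS, 1 mM EDTA, 0.01% Tween; final compound range 12.5 μM to 0.8 pM.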

As a reminder, the IC50 is the concentration needed to halve the response being measured. Read a high IC50 as lower potency. `O=C1CC[C@H](COC(=O)N2CC(OCc3ccc(C(F)(F)F)cc3F)C2)N1` [Example 53, [(2R)-5-Oxopyrrolidin-2-yl]methyl 3-[[2-fluoro-4-(trifluoromethyl)phenyl]methoxy] azetidine-1-carboxylate] gave an IC50 of 907 nM.
For the molecule `O=C1N[C@H](COC(=O)N2CC(OCc3ccc(C(F)(F)F)cc3F)C2)CO1` [Example 54, [(4S)-2-Oxooxazolidin-4-yl]methyl 3-[[2-fluoro-4-(trifluoromethyl)phenyl]methoxy] azetidine-1-carboxylate], half-maximal inhibition (IC50) required 36 nM.
On to `O=C1N[C@@H](COC(=O)N2CC(OCc3ccc(C(F)(F)F)cc3F)C2)CO1` [Example 55, [(4R)-2-Oxooxazolidin-4-yl]methyl 3-[[2-fluoro-4-(trifluoromethyl)phenyl]methoxy] azetidine-1-carboxylate], for which the half-inhibitory concentration (IC50) is 33 nM.
Molecule `O=C1N[C@H](COC(=O)N2CC(c3ccc(C4(C(F)(F)F)CC4)cc3)C2)CO1` [Example 56, [(4S)-2-Oxooxazolidin-4-yl]methyl 3-[4-[1-(trifluoromethyl)cyclopropyl]phenyl] azetidine-1-carboxylate] returned a 50% inhibitory concentration (IC50) of 5 nM. This IC50 lies about 6.6-fold lower than the previous one.
`O=C1N[C@H](COC(=O)N2CC3(CC(Cc4ccc(F)cc4F)C3)C2)CO1` [Example 57, [(4S)-2-Oxooxazolidin-4-yl]methyl 6-[(2,4-difluorophenyl)methyl]-2-azaspiro[3.3]heptane-2-carboxylate] displayed a 50% inhibitory concentration (IC50) of 2 nM.
On to `O=C1N[C@H](COC(=O)N2CC(c3ccc(Oc4ccc(F)cc4)cc3)C2)CO1` [Example 58, [(4S)-2-Oxooxazolidin-4-yl]methyl 3-[4-(4-fluorophenoxy)phenyl]azetidine-1-carboxylate], for which the IC50 was 4 nM.
In turn, `O=C1N[C@@H](COC(=O)N2CC3(CC(Cc4ccc(F)cc4F)C3)C2)CO1` [Example 59, [(4R)-2-Oxooxazolidin-4-yl]methyl 6-[(2,4-difluorophenyl)methyl]-2-azaspiro[3.3]heptane-2-carboxylate] gave a concentration for half-maximal inhibition (IC50) of 2 nM.
With `O=C1N[C@H](COC(=O)N2CC(c3ccc(Oc4ccccc4Cl)nc3)C2)CO1` [Example 60, [(4S)-2-Oxooxazolidin-4-yl]methyl 3-[6-(2-chlorophenoxy)-3-pyridyl]azetidine-1-carboxylate], the 50% inhibitory concentration (IC50) stood at 33 nM. Against the preceding molecule, the IC50 is about 16-fold higher.
With `O=C1N[C@H](COC(=O)N2CC(C#Cc3ccccc3C(F)F)C2)CO1` [Example 61, [(4S)-2-Oxooxazolidin-4-yl]methyl 3-[2-[2-(difluoromethyl)phenyl]ethynyl] azetidine-1-carboxylate], the IC50 worked out at 13 nM.
For `O=C1N[C@H](COC(=O)N2CC(c3ccc(N4CCC(C(F)(F)F)C4)nc3)C2)CO1` (stereo partly drawn) [Example 62, [(4S)-2-Oxooxazolidin-4-yl]methyl 3-[6-[3-(trifluoromethyl)pyrrolidin-1-yl]-3-pyridyl]azetidine-1-carboxylate], inhibition was half-maximal at 26 nM (IC50).
`O=C(OCCc1cnn[nH]1)N1CC(OCc2ccc(C(F)(F)F)cc2F)C1` [Example 63, 2-(1H-Triazol-5-yl)ethyl 3-[[2-fluoro-4-(trifluoro-methyl)phenyl]methoxy]azetidine-1-carboxylate]: the IC50 was determined as 19 nM.
Molecule `O=C(NCCc1cnn[nH]1)N1CC(OCc2ccc(C(F)(F)F)cc2F)C1` [Example 64, 3-[[2-Fluoro-4-(trifluoromethyl)phenyl]methoxy]-N-[2-(1H-triazol-5-yl)ethyl]azetidine-1-carboxamide] registered a concentration for half-maximal inhibition (IC50) of 93 nM.
Consider `CN(CCc1cnn[nH]1)C(=O)N1CC(c2ccc(C3(C(F)(F)F)CC3)cc2)C1` [Example 65, N-Methyl-N-[2-(1H-triazol-5-yl)ethyl]-3-[4-[1-(trifluoromethyl)cyclopropyl]phenyl] azetidine-1-carboxamide], for which the midpoint of inhibition, the IC50, lay at 2 nM. This IC50 is about 46-fold lower than that of the molecule before.
The molecule `CN(CCc1cnn[nH]1)C(=O)N1CC(OCc2ccc(C(F)(F)F)cc2F)C1` [Example 66, 3-[[2-Fluoro-4-(trifluoromethyl)phenyl]methoxy]-N-methyl-N-[2-(1H-triazol-5-yl)ethyl]azetidine-1-carboxamide] returned an IC50 of 13 nM.
In turn, `CN(CCc1cnn[nH]1)C(=O)N1CC(c2ccc(-c3ccc(S(C)(=O)=O)cc3Cl)cc2)C1` [Example 67, 3-[4-(2-Chloro-4-methylsulfonyl-phenyl)phenyl]-N-methyl-N-[2-(1H-triazol-5-yl)ethyl]azetidine-1-carboxamide] had a concentration for half-maximal inhibition (IC50) of 27 nM.
On to `CC(CCc1cnn[nH]1)C(=O)N1CC(c2ccc(C3(C(F)(F)F)CC3)cc2)C1` (centres unmarked) [Example 68, 2-Methyl-4-(1H-triazol-5-yl)-1-[3-[4-[1-(trifluoromethyl)cyclopropyl]phenyl]azetidin-1-yl]butan-1-one], for which the concentration for half-maximal inhibition (IC50) is 59 nM.
Turning to `O=C(CC(O)Cc1cnn[nH]1)N1CC(c2ccc(C3(C(F)(F)F)CC3)cc2)C1` (centres unmarked) [Example 69, 3-Hydroxy-4-(1H-triazol-5-yl)-1-[3-[4-[1-(trifluoromethyl)cyclopropyl]phenyl]azetidin-1-yl]butan-1-one], half-maximal inhibition (IC50) was put at 122 nM.
As to `O=C(C(F)CCc1cnn[nH]1)N1CC(c2ccc(C3(C(F)(F)F)CC3)cc2)C1` (centres unmarked) [Example 70, 2-Fluoro-4-(1H-triazol-5-yl)-1-[3-[4-[1-(trifluoromethyl)cyclopropyl]phenyl]azetidin-1-yl]butan-1-one], the IC50 is 62 nM.
Take `CN(c1ccccc1)c1ccc(C2CN(C(=O)CC[C@@H]3COC(=O)N3)C2)cc1` [Example 71, (4R)-4-[3-[3-[4-(N-Methylanilino)phenyl]azetidin-1-yl]-3-oxo-propyl]oxazolidin-2-one]: the IC50 is 1 nM.
The molecule `CC(C)(C)c1ccc(C2CN(C(=O)CC[C@@H]3COC(=O)N3)C2)nc1` [Example 72, (4R)-4-[3-[3-(5-tert-Butyl-2-pyridyl)azetidin-1-yl]-3-oxo-propyl]oxazolidin-2-one] displayed a half-maximal inhibitory concentration (IC50) of 7 nM.
`CS(=O)(=O)c1ccc(-c2ccc(C3CN(C(=O)CC[C@@H]4COC(=O)N4)C3)cc2)c(Cl)c1` [Example 73, (4R)-4-[3-[3-[4-(2-Chloro-4-methyl-sulfonyl-phenyl)phenyl]azetidin-1-yl]-3-oxo-propyl]oxazolidin-2-one]: half-maximal inhibition (IC50) required 1 nM.
`O=C1N[C@H](CCC(=O)N2CC(c3ccc(S(=O)(=O)c4ccccc4)cc3)C2)CO1` [Example 74, (4R)-4-[3-[3-[4-(Benzenesulfonyl)phenyl]azetidin-1-yl]-3-oxo-propyl]oxazolidin-2-one] had a half-inhibitory concentration (IC50) of 5 nM.
`N#CCS(=O)(=O)c1ccc(C2CN(C(=O)CC[C@@H]3COC(=O)N3)C2)cc1` [Example 75, 2-[4-[1-[3-[(4R)-2-Oxooxazolidin-4-yl]propanoyl]azetidin-3-yl]phenyl]sulfonyl-acetonitrile] returned a concentration for half-maximal inhibition (IC50) of 57 nM.
In the case of `O=C1N[C@H](CCC(=O)N2CC(c3ccc(S(=O)(=O)C(F)(F)F)cc3)C2)CO1` [Example 76, (4R)-4-[3-Oxo-3-[3-[4-(trifluoro-methylsulfonyl)phenyl]azetidin-1-yl]propyl]oxazolidin-2-one], the concentration for half-maximal inhibition (IC50) was 81 nM.
On to `O=C1N[C@H](CCC(=O)N2CC(c3ccc(S(=O)(=O)C4CCCCC4)cc3)C2)CO1` [Example 77, (4R)-4-[3-[3-(4-Cyclohexylsulfonyl-phenyl)azetidin-1-yl]-3-oxo-propyl] oxazolidin-2-one], for which half-maximal inhibition (IC50) required 35 nM.
Molecule `N#CC1(c2ccc(C3CN(C(=O)CC[C@@H]4COC(=O)N4)C3)cn2)CCC1` [Example 78, 1-[5-[1-[3-[(4R)-2-Oxooxazolidin-4-yl]propanoyl]azetidin-3-yl]-2-pyridyl]cyclobutane-carbonitrile] displayed a half-inhibitory concentration (IC50) of 981 nM.
The molecule `Cc1ncccc1Oc1ccc(C2CN(C(=O)CC[C@@H]3COC(=O)N3)C2)cc1` [Example 79, (4R)-4-[3-[3-[4-[(2-Methyl-3-pyridyl)oxy]phenyl]azetidin-1-yl]-3-oxo-propyl]oxazolidin-2-one] registered an IC50 of 33 nM.
Under `O=C1N[C@H](CCC(=O)N2CC(c3ccc(Oc4nccc(C5CC5)n4)cc3)C2)CO1` [Example 80, (4R)-4-[3-[3-[4-(4-Cyclopropyl-pyrimidin-2-yl)oxyphenyl]azetidin-1-yl]-3-oxo-propyl] oxazolidin-2-one] stands 27 nM.
`CC(C)(C)Cn1nncc1-c1ccc(C2CN(C(=O)CC[C@@H]3COC(=O)N3)C2)cc1` [Example 81, (4R)-4-[3-[3-[4-[3-(2,2-Dimethyl-propyl)triazol-4-yl]phenyl]azetidin-1-yl]-3-oxo-propyl]oxazolidin-2-one] had an IC50 of 7 nM.
Under `CS(=O)(=O)c1cc(Cl)ccc1-c1ccc(C2CN(C(=O)CC[C@@H]3COC(=O)N3)C2)cc1` [Example 82, (4R)-4-[3-[3-[4-(4-Chloro-2-methyl-sulfonyl-phenyl)phenyl]azetidin-1-yl]-3-oxo-propyl]oxazolidin-2-one] stands 0.5 nM; under `NC(=O)c1cc(Cl)ccc1Oc1ccc(C2CN(C(=O)CC[C@@H]3COC(=O)N3)C2)cn1` [Example 85, 5-Chloro-2-[[5-[1-[3-[(4R)-2-oxooxazolidin-4-yl]propanoyl]azetidin-3-yl]-2-pyridyl]oxy]benzamide], 123 nM.
As to `O=C1CSC[C@H](CCC(=O)N2CC(OCc3ccc(C(F)(F)F)cc3F)C2)N1` [Example 88, (5S)-5-[3-[3-[[2-Fluoro-4-(trifluoromethyl)phenyl]methoxy]azetidin-1-yl]-3-oxo-propyl]thiomorpholin-3-one], the IC50 worked out at 1300 nM. This IC50 lies about 11-fold higher than the previous one.
